{"source": "patent US20170199175A1", "about": "“DEVICE AND METHOD FOR ASSESSING CELL CONTRACTION” (The Governing Council of the University of Toronto, priority 2014, published 2017)", "note": "Entries after “also recorded” stand apart in the source; their conditions may differ.", "data": [{"system": "fibroblasts", "experiment": "Wrinkling of PDMS silicone elastomer film by contractile fibroblasts (live videomicroscopy, kymograph analysis)", "type": "cell-based, rat", "conditions": "1:100 PDMS film, plasma + APTES + paraformaldehyde + collagen; LPA 10 μM, cytochalasin D 1-10 μM, Y27632 10 μM", "procedure": "Primary rat lung myofibroblasts and subcutaneous fibroblasts (SCF) were derived from explants and cultured from passage 2-7. All cells, including lineage aortic smooth muscle cells (A7r5) and rat embryonic fibroblasts (REF-52) were cultured in DMEM (Gibco-BRL, Basel, CH), containing 10% FCS and antibiotics. Cytochalasin D (Sigma) was used at 1-10 μM, blebbistatin (Calbiochem, Darmstadt, Germany) at 10 μM, Y27632 (Calbiochem) at 10 μM and lysophosphatic acid (LPA) (Sigma) at 10 μM. For FA maturation analysis, REF-52 were stably transfected with β3 integrin-GFP (16), full-length GFP-paxillin (Zamir et al, 2000), and α-SMA-GFP (Clement et al., 2005), using Fugene 6 (Roche, Reinach, CH).\nTo reduce pipetting errors and to ameliorate the mixing process, curing agent can be pre-diluted in toluene without changing the elastic properties of the polymerized material. PDMS films of 200 μm thickness were produced by distributing the respective volume with a pipette tip onto glass coverslips (#0, Karl Hecht KG, Sondheim, Germany) at the bottom of homemade observation chambers or on standard culture dishes. Substrates were degassed in a desiccator and polymerized for minimum 3 d at RT. Polymerized films were kept at RT for up to two months without changing compliance. Alternative polymerization protocols using higher curing temperatures are possible but will have an influence on the elastic modulus of the film (Lee et al., 2004). […]\nConfocal images of fixed specimen were acquired using a 40× oil immersion objective (HC PL APO, NA 1.25-0.75, Leica, Glattbrugg, CH), mounted on an inverted confocal microscope (DM IRE2 with a laser scanning confocal head TCS SP2 AOBS, Leica). […] Phase contrast sequences were taken at a rate of 1 frame/min and live fluorescence images every 30 min using 20× (Plan-Apochromat, Ph2, NA 0.5) and 40× (Plan-Neofluar, Ph3, NA 1.3 oil immersion, Zeiss) objectives. […]", "values": [{"molecule": "C[C@@H](N)[C@H]1CC[C@H](C(=O)Nc2ccncc2)CC1", "note": "[Y27632]", "cell contraction (number and extension of wrinkles)": "completely abolished"}, {"molecule": "C=C1[C@@H](C)[C@H]2[C@H](Cc3ccccc3)NC(=O)[C@]23[C@H](OC(C)=O)/C=C/[C@@](C)(O)C(=O)[C@@H](C)C/C=C/[C@H]3[C@@H]1O", "note": "[cytochalasin D, Cytochalasin D]", "cell contraction (number and extension of wrinkles)": "completely abolished; also recorded: loss of cell contraction"}, {"molecule": "lysophosphatic acid [LPA]", "cell contraction (number and extension of wrinkles)": "increased cell contraction"}]}, {"system": "hES2-derived cardiomyocytes", "experiment": "Wrinkling-based contraction analysis of periodically contracting cardiomyocyte colonies on silicone elastomer film", "type": "cell-based, human", "conditions": "live treatment in three concentrations (high, medium, low): ouabain and nifidepine 0.3, 3, 30 μM; isoproterenol and blebbistatin 0.1, 1, 10 μM", "procedure": "To meet standard requirements on product shelf life and ease-of-shipping, the surface treatment method was refined to provide the film surface with a dry layer of adhesive protein. The improved treatment process (“APTES/EDAC”) comprises sequential oxidation with plasma oxygen, 1% APTES for 90 min, 100 μg/ml 1-Ethyl-3-(3-dimethylaminopropyl) carbodiimide (EDAC) for 10 min (to replace the previous paraformaldehyde step), protein wet coating, and air drying. Fibronectin and gelatin were used as most widely applied proteins to promote cardiomyocyte adhesion.\nThe number of beating colonies was at least 20-30/well across all protein coatings following APTES/EDAC treatment but <10 beating colonies/well without APTES/EDAC functionalization (FIG. 17C). APTES/EDAC functionalization obtained wrinkles which were visible in ˜50% of all beating colonies (FIG. 17D). APTES/EDAC treated surfaces with fibronectin (2 μg/ml) and gelatin (2 and 20 μg/ml) coating were selected to optimize cell densities for contraction analysis. Cardiomyocyte seeding densities were reduced from 50,000 to 25,000, 10,000 and 5,000 cells/cm^2 and wrinkling percentages were quantified. With cell density adaptation, the percentage of wrinkling among beating colonies reached 80-90% across all protein coatings with 10,000-25,000 cells/cm^2. […] Too low density reduced the number of beating colonies and percentage of wrinkling cells (FIG. 17E). For all further experiments, the plasma oxidized and APTES/EDAC-treated biocompatible silicone elastomers of 96-wells were coated with gelatin at a concentration of 2 μg/ml and provided with 10,000 cells/cm^2 before wrinkling was assessed after 2 days.\nCardiomyocyte contraction was assessed by recording image sequences over at least 15 s with an image acquisition rate of 10 frames/s. Acquisition was performed well-by-well on four image fields per well using the 10× objective of an inverted microscope with motorized stage and fully automated stage/acquisition control. The setup was chosen to provide conditions equivalent to commercially available HTS imaging stations. […] When comparing the signals generated by contracting cardiomyocytes on films with the competitive method of shape analysis on stiff culture substrates, wrinkling analysis delivered a 10-20-fold higher signal (FIG. 18).\nReferring to FIG. 28, periodically contracting cardiomyocyte colonies were recorded and live treated with cardiomyocyte affecting drugs in three concentrations (high, medium, low). Ouabain (0.3, 3, 30 μM) increased contraction amplitude at unchanged frequency, nifidepine (0.3, 3, 30 μM) decreased contraction amplitude and increased frequency, isoproterenol (0.1, 1, 10 μM) increased contraction frequency and amplitude, and blebbistatin (0.1, 1, 10 μM) decreased contraction amplitude and frequency.", "values": [{"molecule": "C[C@@H]1O[C@@H](O[C@H]2C[C@@H](O)[C@]3(CO)[C@H]4[C@H](O)C[C@]5(C)[C@@H](C6=CC(=O)OC6)CC[C@]5(O)[C@@H]4CC[C@]3(O)C2)[C@H](O)[C@H](O)[C@H]1O", "note": "[Ouabain]", "contraction (beating) amplitude": "increased", "contraction (beating) frequency": "unchanged"}, {"molecule": "Cc1ccc2c(c1)C(=O)C1(O)CCN(c3ccccc3)C1=N2", "note": "(stereo not drawn) [blebbistatin]", "contraction (beating) amplitude": "decreased", "contraction (beating) frequency": "decreased"}, {"molecule": "CC(C)NCC(O)c1ccc(O)c(O)c1", "note": "(stereo not drawn) [isoproterenol]", "contraction (beating) amplitude": "increased", "contraction (beating) frequency": "increased"}, {"molecule": "COC(=O)C1=C(C)NC(C)=C(C(=O)OC)C1c1ccccc1[N+](=O)[O-]", "note": "[nifidepine]", "contraction (beating) amplitude": "decreased", "contraction (beating) frequency": "increased"}]}, {"system": "cardiomyocytes", "experiment": "not given", "conditions": "benchmark drugs, Yokoo et al. 2009 / Gai et al. 2009; cited from earlier work", "values": [{"molecule": "CNCC(O)c1ccc(O)c(O)c1", "note": "(stereo not drawn) [adrenaline]", "frequency of beating": "increase"}, {"molecule": "COc1ccc([C@@H]2Sc3ccccc3N(CCN(C)C)C(=O)[C@@H]2OC(C)=O)cc1", "note": "[diltiazem]", "frequency of beating": "decrease"}, {"molecule": "O=C(NCC1CCCCN1)c1cc(OCC(F)(F)F)ccc1OCC(F)(F)F", "note": "(stereo not drawn) [felcainide]", "frequency of beating": "decrease"}, {"molecule": "CC(C)NCC(O)c1ccc(O)c(O)c1", "note": "(stereo not drawn) [isoproterenol]", "frequency of beating": "increase"}, {"molecule": "CNC[C@H](O)c1cccc(O)c1", "note": "[phenylephrine]", "frequency of beating": "increase"}, {"molecule": "CCN(CC)CCNC(=O)c1ccc(N)cc1", "note": "[procainamide]", "frequency of beating": "decrease"}, {"molecule": "COc1ccc(CCN(C)CCCC(C#N)(c2ccc(OC)c(OC)c2)C(C)C)cc1OC", "note": "(stereo not drawn) [verapamil]", "frequency of beating": "decrease"}]}]}
